Laboratory results: patent US20060148732A1, “Inhibition of NF-kappaB by triterpene compositions” (priority 2000, published 2006)

Experiments:
PARP in Jurkat cells = assay: Immunoblot analysis of PARP degradation; type: cell-based, human; settings: 2 μg/ml
Experimental: Apoptosis induced by F035 & D1 was examined by proteolytic cleavage of poly (ADP-ribose) polymerase (PARP). Jurkat cells (2×10^6/ml) were treated with F035 (2 μg/ml) and D1 (2 μg/ml) for different lengths of time. Cell lysates were prepared in buffer containing 20 mM HEPES, 250 mM NaCl, 2 mM EDTA, 0.1% NP-40, 2 μg/ml leupeptin, 2 μg/ml aprotinin, 0.5 μg/ml benzamidine, 1 mM DTT and 1 mM PMSF. Cellular proteins (60 μg/ml) were separated on a 7.5% SDS polyacrylamide gel and electrotransferred onto a nitrocellulose membrane. The membrane was probed first with monclonal anti-PARP antibody (PharMingen) and then with anti-mouse antibody conjugated to horse radish peroxidase (HRPO). Protein bands were detected by chemiluminescense (ECL, Amersham). The extent of cleavage of the 116-kDa PARP into 85-kDa and 41-kDa peptide products was used as a measure of apoptosis (Tewari et al., 1995).
Immunoblot Analysis of PARP Degradation. Induction of apoptosis was also examined by proteolytic cleavage of PARP (Nicholson and Thornberry, 1997). Jurkat cells (3×10^6) were treated with 2 μg/ml of F094, avicin D, or avicin G at 37° C. Cell lysates were prepared in a buffer containing 20 mM HEPES, 250 mM NaCl, 2 mM EDTA, 0.1% NP-40, 2 μg/ml leupeptin, 2 μg/ml aprotinin, 0.5 μg/ml benzamidine, 1 mM DTT, and 1 mM PMSF. Cellular proteins (60 μg/ml) were separated on a 7.5% SDS polyacrylamide gel and electrotransferred onto a nitrocellulose membrane. The membrane was probed first with monoclonal anti-PARP antibody (Pharmingen) and then with anti-mouse antibody conjugated to horseradish peroxidase (HRPO). Protein bands were detected by chemiluminescence (ECL). The appearance of an 85 kDa cleavage product was used as a measure of apoptosis.

[1] = tested on: cytochrome c in Jurkat cells; assay: Cytochrome c release from mitochondria (western blot); type: cell-based, human; settings: 2 μg/ml
Experimental: Release of cytochrome c from mitochondria in response to treatment with F035 was detected by western blotting. Jurkat cells (10 ×10^6) were treated with 2 μg/ml of F035 for 4 and 6 h at 37° C. Cell pellets were washed in sucrose buffer (0.25M sucrose, 30 mM Tris, pH 7.7, 1 mM EDTA). To the cell pellets added 20 μl of sucrose buffer containing 1 μM PMSF, 1 μg/ml leupeptin, 1 μg/ml pepstatin and 1 μg/ml aprotinin. Cells were disrupted by douncing 120 times in a 0.3 ml Kontes douncer with a B pestle (Kontes Glass company). Cellular protein (60 μg) was resolved on a 15% SDS-polyacrylamide gel and electrotransferred onto a nitrocellulose membrane. The membrane was probed first with monoclonal anti-cytochrome c antibody (PharMingen) and then with anti-mouse antibody conjugated to horse radish peroxidase (HRPO). Protein bands were detected by chemiluminescence (ECL, Amersham).
Detection of Cytochrome c Release from Mitochondria. Release of cytochrome c from mitochondria was detected by Western blot analysis. Jurkat cells (1×10^7) were treated with F094, avicin D, or avicin G (2 μg/ml) at 37° C. After washing the cell pellets in sucrose buffer (0.25 M sucrose, 30 mM Tris, pH 7.7, 1 mM EDTA), they were resuspended in 20 μl of sucrose buffer containing 1 μM PMSF, 1 μg/ml leupeptin, 1 μg/ml pepstatin, and 1 μg/ml aprotinin. Cells were disrupted by douncing 120 times in a 0.3 ml Kontes douncer (Kontes Glass Company, Vineland, N.J.) with a B pestle. Cellular protein (50 μg) was resolved on a 15% SDS-polyacrylamide gel and electrotransferred onto a nitrocellulose membrane. The membrane was probed with monoclonal anti-cytochrome c antibody (Pharmingen, San Diego, Calif.) followed with anti-mouse antibody conjugated to horseradish peroxidase (HRPO). Protein bands were detected by chemiluminescence (ECL, Amersham).

[2] = Biological assays of purified compounds (not specified)

Structure (SMILES)	time to (almost) complete cleavage of PARP (PARP in Jurkat cells) [h]	increase in cytosolic cytochrome c ([1]; 30 minutes post-treatment) [fold]	increase in cytosolic cytochrome c ([1]; 4 hours post-treatment) [fold]	biological activity relative to other compounds [2]
C=C[C@](C)(O)CC/C=C(\C)C(=O)O[C@H]1[C@H](O)[C@@H](O)[C@H](O[C@@](C)(C=C)CC/C=C(\CO)C(=O)O[C@H]2C[C@]3(C(=O)O[C@@H]4O[C@H](CO)[C@@H](O)[C@H](O)[C@H]4O[C@@H]4O[C@@H](C)[C@H](O[C@@H]5O[C@@H](CO)[C@H](O)[C@H]5O)[C@@H](O[C@@H]5O[C@H](CO)[C@@H](O)[C@H](O)[C@H]5O)[C@H]4O)[C@H](O)C[C@]4(C)C(=CC[C@@H]5[C@@]6(C)CC[C@H](O[C@@H]7O[C@H](CO[C@@H]8O[C@H](C)[C@H](O)[C@H](O)[C@H]8O[C@@H]8OC[C@@H](O)[C@H](O)[C@H]8O)[C@@H](O)[C@H](O)[C@H]7NC(C)=O)C(C)(C)[C@@H]6CC[C@]54C)[C@@H]3CC2(C)C)O[C@@H]1C [Fraction G1]	≤ 4	3.5	8.4	more biologically active than D1
C=C[C@](C)(O)CC/C=C(\CO)C(=O)O[C@H]1[C@H](O)[C@@H](O)[C@H](O[C@@](C)(C=C)CC/C=C(\CO)C(=O)O[C@H]2C[C@]3(C(=O)O[C@@H]4O[C@H](CO)[C@@H](O)[C@H](O)[C@H]4O[C@@H]4O[C@@H](C)[C@H](O[C@@H]5O[C@@H](CO)[C@H](O)[C@H]5O)[C@@H](O[C@@H]5O[C@H](CO)[C@@H](O)[C@H](O)[C@H]5O)[C@H]4O)[C@H](O)C[C@]4(C)C(=CC[C@@H]5[C@@]6(C)CC[C@H](O[C@@H]7O[C@H](CO[C@@H]8O[C@H](C)[C@H](O)[C@H](O)[C@H]8O[C@@H]8OC[C@@H](O)[C@H](O)[C@H]8O)[C@@H](O)[C@H](O)[C@H]7NC(C)=O)C(C)(C)[C@@H]6CC[C@]54C)[C@@H]3CC2(C)C)O[C@@H]1C [Fraction D1]	8 to 16	1.5	3	considerable biological activity
